Test results: patent US8507506B2, “Theophylline derivative inhibits osteoporosis” (Kaohsiung Medical University, priority 2011, dated 2013)
Marks after values point to notes of the source that are not given here.

Key:
[1] = test system: TRAF6 mRNA in RAW264.7 cells; test: RT-PCR, RANKL-induced mRNA expression of TRAF6; type: cell-based; conditions: for RANKL-induced mRNA expression level of TRAF6: RAW264.7 cells, 24 hours, CTL 100%, mean ± SEM
From the text: (§1) The culture medium was discarded. […] [table] f) Running • A.

[2] = test system: TRAP mRNA in RAW264.7 cells; test: RT-PCR, RANKL-induced mRNA expression of TRAP; type: cell-based; conditions: for RANKL-induced mRNA expression level of TRAP: RAW264.7 cells, 24 hours, CTL 100%, mean ± SEM
From the text: as §1

[3] = test system: Cathepsin K mRNA in RAW264.7 cells; test: RT-PCR, RANKL-induced mRNA expression of Cathepsin K; type: cell-based; conditions: for RANKL-induced mRNA expression level of Cathepsin K: RAW264.7 cells, 24 hours, CTL 100%, mean ± SEM
From the text: as §1

RAW264.7 cells = test: MTT assay, proliferation induced by RANKL; type: cell-based; conditions: RAW264.7, 5 μM, 7.5 μM, 10 μM, FIG. 1
Description: Cells were plated onto 96-well plates at a density of 10^3 cells per well. After 24 hours incubation, the different concentrations of the different drugs were administrated into the plates. […] Subsequently, the medium was removed, and 100 μl/well isopropanol was added to solved formazan. The plates were shaken for 15 minutes and stood for 15 minutes, and then the absorbance was measured at wavelength of 540 nm and 630 nm. The ratio of the absorbance of treated cells relative to that of the control cells was calculated and expressed as a percentage of cell survival.

[4] = test system: TRAP activity of RAW264.7 cells induced by RANKL; test: TRAP activity assay; type: cell-based; conditions: 10 ng/ml RANKL for 5 days, different concentrations, FIG. 4
Description: 10^3 cells were plated per well in 96-well plates. […] When the reaction fluid became yellow, 0.1 M, 100 μl/well NaOH was added to terminate the reaction, and OD405 was examined in 37° C. b) 3 μl/well supernatant was examined by Bio-Red DC Protein Assay to detect the protein concentration.

[5] = test system: IL-10 secretion by RAW264.7 cells; test: ELISA, amount of IL-10; type: cell-based; conditions: RAW264.7, ELISA, increasing dose, FIG. 7(B)
Description: Under RANKL stimulation, mononuclear RAW264.7 cells can secrete pro-inflammatory cytokines such as TNF-α, IL-1, IL-6, etc. ELISA is used to measure that KMUP-1 influences RANKL to induce the secretion of pro-inflammatory cytokines. […] 10^5 cells were plated per well in 24-well plates. […] After 24 hours reaction, the reaction fluid was centrifuged (13,000 rpm, 4° C., 20 minutes), and then the supernatant was tasted by ELISA kit (R&D system and eBioscience™) to detect the amount of TNF-α, IL-1β, IL-6, and IL-10. The experimental process is followed with the instructions of the kit.

[6] = test system: ERK phosphorylation in RAW264.7 cells; test: Western blot, phosphorylation of ERK induced by RANKL; type: cell-based; conditions: 7.5 μM and 10 μM, RANKL 15 minutes, FIG. 9
Description: MAP kinases including ERK, JNK and p38 are stimulated by RANKL to be phosphorylized and further influence the down-stream key transcription factors which induce the differentiation of osteoclast-like cells such as c-Fos, NFATc1, etc. Before estimating the drug effect, 10 ng/ml RANKL are used to induce the phosphorylation of ERK, JNK and p38 at different time points. […] It is shown that KMUP-1 can reduce the activation of MAP kinases induced by RANKL. […] The proteins were collected by scraping and were centrifuged (13,000 rpm, 4° C., 30 minutes). The supernatant was stored in an eppendorf in −80° C. • c) Concentrations of the proteins were examined by Bio-Red DC Protein Assay. After knowing the concentrations, the proteins were diluted to specific concentrations by adding ddH2O. One forth volume of the diluted proteins of sample buffer was added into the diluted proteins and was put in boiled water for 5 min and then was chilled on ice for 5 minutes. After short time centrifugation, the diluted proteins could be injected into wells of a gel. The gel was run at 100 V for 10 minutes until the proteins were driven to the intersection between a loading gel and a running gel. Then, the voltage was swopped to 200 V for 40 minutes. • d) A PVDF membrane was immersed in Methanol for 2 minutes. After two washes in ddH2O, the membrane was immersed in transfer buffer for 15 minutes. […]

[7] = test system: Akt phosphorylation in RAW264.7 cells; test: Western blot, phosphorylation of Akt induced by RANKL; type: cell-based; conditions: 10 ng/ml RANKL for 30 minutes, dose dependent, FIG. 17
Description: RANKL can activate PI3K/Akt pathway to maintain the existence and the proliferation of osteoclast-like cells and prevent the apoptosis. The Akt phosphorylation level which is induced by RANKL is examined at different time points. The induced Akt phosphorylation is most apparent when it is induced by 10 ng/ml RANKL for 30 minutes. Therefore, 30 minutes are used to be the time point for inducing Akt phosphoryaltion. […] The proteins were collected by scraping and were centrifuged (13,000 rpm, 4° C., 30 minutes). The supernatant was stored in an eppendorf in −80° C. • c) Concentrations of the proteins were examined by Bio-Red DC Protein Assay. After knowing the concentrations, the proteins were diluted to specific concentrations by adding ddH2O. One forth volume of the diluted proteins of sample buffer was added into the diluted proteins and was put in boiled water for 5 min and then was chilled on ice for 5 minutes. After short time centrifugation, the diluted proteins could be injected into wells of a gel. The gel was run at 100 V for 10 minutes until the proteins were driven to the intersection between a loading gel and a running gel. Then, the voltage was swopped to 200 V for 40 minutes. • d) A PVDF membrane was immersed in Methanol for 2 minutes. After two washes in ddH2O, the membrane was immersed in transfer buffer for 15 minutes. […]

[8] = test system: MIA-induced knee arthritis in Wistar male rats; test: Monosodium iodoacetate (MIA) induced knee arthritis rat model; type: in vivo
[9] = 10 ng/ml RANKL, summary of Table 1

Cn1c(=O)c2c(ncn2CCN2CCN(c3ccccc3Cl)CC2)n(C)c1=O [KMUP-1, 7-[2-[4-(2-Chlorophenyl)piperazin-1-yl]ethyl] theophylline]
effect on mRNA expression of TRAF6 induced by RANKL (in words) [1, 9]: not obviously inhibits
RANKL-induced mRNA expression level of TRAF6 ([1]; RANKL 10 ng/ml + KMUP-1 1 μM): 100.2 ± 4.7%
RANKL-induced mRNA expression level of TRAF6 ([1]; RANKL 10 ng/ml + KMUP-1 2.5 μM): 123.8 ± 2.3%
RANKL-induced mRNA expression level of TRAF6 ([1]; RANKL 10 ng/ml + KMUP-1 5 μM): 125.9 ± 2.9% ^
RANKL-induced mRNA expression level of TRAF6 ([1]; RANKL 10 ng/ml + KMUP-1 7.5 μM): 128.4 ± 6.5% ^
RANKL-induced mRNA expression level of TRAF6 ([1]; RANKL 10 ng/ml + KMUP-1 10 μM): 127.2 ± 1.3% ^
effect on mRNA expression of TRAP induced by RANKL (in words) [2, 9]: inhibits the mRNA expression
RANKL-induced mRNA expression level of TRAP ([2]; RANKL 10 ng/ml + KMUP-1 1 μM): 422.4 ± 24.8%
RANKL-induced mRNA expression level of TRAP ([2]; RANKL 10 ng/ml + KMUP-1 2.5 μM): 427.7 ± 39.3%
RANKL-induced mRNA expression level of TRAP ([2]; RANKL 10 ng/ml + KMUP-1 5 μM): 359.9 ± 20.7% ^b
RANKL-induced mRNA expression level of TRAP ([2]; RANKL 10 ng/ml + KMUP-1 7.5 μM): 293.8 ± 30.1% ^b
RANKL-induced mRNA expression level of TRAP ([2]; RANKL 10 ng/ml + KMUP-1 10 μM): 259.3 ± 18.3% ^b
effect on mRNA expression of Cathepsin K induced by RANKL (in words) [3, 9]: not obviously inhibits
RANKL-induced mRNA expression level of Cathepsin K ([3]; RANKL 10 ng/ml + KMUP-1 1 μM): 304 ± 7.8%
RANKL-induced mRNA expression level of Cathepsin K ([3]; RANKL 10 ng/ml + KMUP-1 2.5 μM): 305 ± 5.9%
RANKL-induced mRNA expression level of Cathepsin K ([3]; RANKL 10 ng/ml + KMUP-1 5 μM): 312 ± 6.2%^
RANKL-induced mRNA expression level of Cathepsin K ([3]; RANKL 10 ng/ml + KMUP-1 7.5 μM): 321.5 ± 10.2% ^
RANKL-induced mRNA expression level of Cathepsin K ([3]; RANKL 10 ng/ml + KMUP-1 10 μM): 245 ± 8.5% ^b
cell proliferation induced by RANKL (MTT assay) (RAW264.7 cells): can inhibit the cell proliferation induced by RANKL
TRAP activity induced by RANKL [4]: can be inhibited, and the inhibiting effect is related to dose
amount of anti-inflammatory cytokine IL-10 [5]: can raise the amount of anti-inflammatory cytokines, IL-10
phosphorylation of ERK induced by RANKL [6]: can efficiently inhibit the phosphorylation of ERK, JNK and p38 induced by RANKL
phosphorylation of Akt induced by RANKL [7]: can efficiently inhibit phosphorylation of Akt induced by RANKL
holes and defects of cartilage tissues (H&E slices) ([8]; oral 1 mg/kg): the holes and defects from the damages of the MIA still exist
inflammatory cell infiltrations (H&E slices) ([8]; oral 1 mg/kg): there are still many inflammatory cell infiltrations
holes and defects of cartilage tissues (H&E slices) ([8]; oral 2.5 mg/kg): become much better
inflammatory cell infiltrations (H&E slices) ([8]; oral 2.5 mg/kg): the inflammatory cell infiltrations become less
damages of articular cartilage caused by MIA (gross appearance) ([8]; oral 2.5 mg/kg and 5 mg/kg, one week before and one week after MIA): can reduce the damages caused by the MIA
holes and defects of cartilage tissues (H&E slices) ([8]; oral 5 mg/kg): close to the recovery condition of the sham group
inflammatory cell infiltrations (H&E slices) ([8]; oral 5 mg/kg): there are still some inflammatory cell infiltrations
mast cell infiltrations (toluidine blue slices) ([8]; oral 1, 2.5, 5 mg/kg): the mast cell infiltrations present a trend of reducing according to the higher dose
